Reference: patent publication US10772967B2, “Enhanced anticancer agent” (priority 2014, dated 2020)
Read-outs that look alike come from different tables or passages of the source.

Tests used:
trypsin = system: T1, trypsin; assay: Trypsin cleavage experiment in buffer, 7-AMC release; assay type: biochemical; settings: hTTR present
T1 construct: purchased Gibco TrypLE Express
Protocol: We used trypsin to test the ability of hTTR to protect TLHE1-peptide conjugate (Conj1) from proteolysis in buffer. FIG. 14 illustrates the protection effect of binding to TTR on the stability of Conj1 in vitro. hTTR protects Conj1 against trypsin hydrolysis in buffer, according to some embodiments.
AFU is arbitrary fluorescence units.
The experiment was performed in quadruplicate.

[1] = Stability against proteolytic hydrolysis in human serum; settings: human serum pre-incubated with AG10 (10 μM)
Text: The amounts of compounds remaining in serum were quantitated at different time-points.

[2] = Pharmacokinetic profile of Conj3 and Conj4 in rats; settings: i.v.
Protocol: (§1) The concentration of test compounds in plasma was determined using validated HPLC method and plotted as a function of time after dosing. Concentrations are expressed as means (±SEM).
(§2) Jugular vein cannulated Sprague-Dawley male rats (200-220 g, 49-52 days old) were used for this study. An extension catheter was attached to the indwelling jugular vein cannula to facilitate remote sampling. The animals were randomly divided into two groups (N=3 or 4): control group and treatment group. […] Simultaneously, the control group was pretreated with vehicle (sterile water) followed by a single combined intravenous dose of molar equivalent of all test compounds as described above. Plasma was collected from each rat and precipitated using 2× solvent B (95:5, Methanol-Water, 0.1% TFA).

[3] = rat, in vivo, iv
Protocol: as §1, §2

[4] = Chemical stability in serum and simulated gastric acid; assay type: in vitro ADME; settings: at least 48 h
Text: Therefore, TLHE1 is a very good candidate for conjugation to peptides.

[5] = Dose escalation of AG10 in rats, plasma concentration; settings: i.v., initial rapid decline of total plasma concentration
Protocol: Adult male Wistar rats, body weight ranging 160-200 g, were used for the study. […] Blood samples were collected at 0.08, 2, 4, 8, and 24 hour time intervals. The plasma samples were prepared by centrifugation at 15,000 RPM for 5 min. The resultant plasma was precipitated using 2× solvent B (95:5, Methanol-Water, 0.1% TFA).

T1 sequence (P35049 25-248): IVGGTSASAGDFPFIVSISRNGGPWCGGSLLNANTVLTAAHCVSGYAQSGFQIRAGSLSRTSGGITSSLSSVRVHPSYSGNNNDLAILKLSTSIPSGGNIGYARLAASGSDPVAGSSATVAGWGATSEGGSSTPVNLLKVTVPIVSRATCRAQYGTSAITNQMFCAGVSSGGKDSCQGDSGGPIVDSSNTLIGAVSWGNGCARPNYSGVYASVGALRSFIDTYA

Question: For `Cc1cc(=O)oc2cc(NC(=O)C(CCCCN)NC(=O)CNC(=O)C(CCCNC(=N)N)NC(=O)CCOCCOCCOCCN=[N+]=[N-])ccc12` (stereo not drawn) [Arg-Gly-Lys-MCA], which “protection against proteolysis in the presence of hTTR (in words)” value (trypsin) is on record?
Answer: no protection against proteolysis

Question: With `Cc1n[nH]c(C)c1CCCOc1cc(OCCCc2cn(CCOCCOCCOCCC(=O)NC(CCC(=O)O)C(=O)NC(Cc3c[nH]cn3)C(=O)NC(Cc3c[nH]c4ccccc34)C(=O)NC(CO)C(=O)NC(Cc3ccc(O)cc3)C(=O)NCC(=O)NC(CC(C)C)C(=O)NC(CCCNC(=N)N)C(=O)N3CCCC3C(=O)NCC(N)=O)nn2)cc(C(=O)O)c1` (centres unmarked) [Conj3] as the molecule, how does the “amount remaining after 48 h in serum pre-incubated with AG10” value ([1]; 48 h) read?
Answer: no detectable amount

Question: Which “time present in circulation” value [2] does the source give for `Cc1n[nH]c(C)c1CCCOc1cc(OCCCc2cn(CCOCCOCCOCCC(=O)NCCCCC(NC(=O)C(Cc3ccc(O)cc3)NC(=O)C(CO)NC(=O)C(Cc3c[nH]c4ccccc34)NC(=O)C(Cc3c[nH]cn3)NC(=O)C3CCC(=O)N3)C(=O)NC(CC(C)C)C(=O)NC(CCCNC(=N)N)C(=O)N3CCCC3C(=O)NCC(N)=O)nn2)cc(C(=O)O)c1` (centres unmarked) [Conj4] here?
Answer: at least 12 h

Question: With `CC(C)C[C@H](NC(=O)[C@@H](CCCCNC(=O)CCOCCOCCOCCN=[N+]=[N-])NC(=O)[C@H](Cc1ccc(O)cc1)NC(=O)[C@H](CO)NC(=O)[C@H](Cc1c[nH]c2ccccc12)NC(=O)[C@H](Cc1c[nH]cn1)NC(=O)[C@@H]1CCC(=O)N1)C(=O)N[C@@H](CCCNC(=N)N)C(=O)N1CCC[C@H]1C(=O)NCC(N)=O` [GnRH-A-Linker] as the molecule, how does the “plasma levels after 2 h of administration” value [3] read?
Answer: no detectable levels

Question: For `C#CCCCOc1cc(OCCCc2c(C)n[nH]c2C)cc(C(=O)O)c1` [TLHE1, 3-(3-(3,5-dimethyl-1H-pyrazol-4-yl)propoxy)-5-(pent-4-yn-1-yloxy)benzoic Acid], which degradation [4] is on record?
Answer: < 3%

Question: For `Cc1n[nH]c(C)c1CCCOc1cc(C(=O)O)ccc1F` [AG10], which initial half-life [5] is on record?
Answer: 5 to 20 min

Question: For `CC[C@H](C)[C@H](NC(=O)[C@H](Cc1ccc(O)cc1)NC(=O)[C@@H]1CCCN1C(=O)[C@H](CCCNC(=N)N)NC(=O)[C@H](CCCNC(=N)N)NC(=O)[C@@H]1CCCN1C(=O)[C@H](CCCCN)NC(=O)[C@H](CC(N)=O)NC(=O)[C@H](CCC(=O)O)NC(=O)[C@H](Cc1ccc(O)cc1)NC(=O)[C@H](CC(C)C)NC(=O)[C@H](CCC(=O)O)NC(=O)CCOCCOCCOCCn1cc(CCCOc2cc(OCCCc3c(C)n[nH]c3C)cc(C(=O)O)c2)nn1)C(=O)N[C@@H](CC(C)C)C(=O)O` [Conj2], which “amount remaining after 24 h in serum pre-incubated with AG10” value ([1]; 24 h) is on record?
Answer: no detectable amount

Question: With `CC(C)C[C@H](NC(=O)[C@@H](CCCCN)NC(=O)[C@H](Cc1ccc(O)cc1)NC(=O)[C@H](CO)NC(=O)[C@H](Cc1c[nH]c2ccccc12)NC(=O)[C@H](Cc1cnc[nH]1)NC(=O)[C@@H]1CCC(=O)N1)C(=O)N[C@@H](CCCNC(=N)N)C(=O)N1CCC[C@H]1C(=O)NCC(N)=O` [GnRH-A, reference compound] as the molecule, how does the “plasma levels after 2 h of administration” value [2] read?
Answer: no detectable levels
